Laboratory results as given in patent US20140294991A1, “MEDICAMENT FOR TREATING ANTERIOR EYE DISEASE COMPRISING REBAMIPIDE AND A TEAR-RETAINING AGENT” (OTSUKA PHARMACEUTICAL CO., LTD., priority 2011, published 2014).

System: tear deficient rat model
Test: Tear volume by Schirmer's test in capsaicin-induced tear deficient rat model
Type: in vivo, Wister/ST rat
Settings: Pharmacological Experiment 3; repeated administration test; compared with non-treated group (FIG. 5)
Description: To evaluate the utility of a combination of rebamipide and a tear-retaining agent or an artificial tear, rebamipide and sodium hyaluronate were administrated in combination to a tear deficient rat model, and the tear volume was measured and the corneal epithelial damage was evaluated. The tests were carried out in single administration and repeated administration.
Capsaicin (50 mg/kg) was administered to a 4-day-old Wister/ST rat, and 4 weeks later the rat was used as a tear deficient rat model.
For the single administration test, 5 μl of each drug solution for one eye was topically administrated to the rats of the “2% rebamipide-treated” group, “0.1% sodium hyaluronate-treated” group, and “2% rebamipide+0.1% sodium hyaluronate-treated” group. For the combination administration, 0.1% sodium hyaluronate was administrated 5 minutes after the administration of 2% rebamipide.
For the repeated administration test, 5 μl of each drug solution for one eye was topically administrated to the rats of the “2% rebamipide-treated” group (4 times/day), “0.1% sodium hyaluronate-treated” group (6 times/day), and “2% rebamipide (4 times/day)+0.1% sodium hyaluronate (6 times/day)-treated” group. […]
The tear volumes were measured as an index of a tear-retention capacity by Schirmer's test.

O=C(NC(Cc1cc(=O)[nH]c2ccccc12)C(=O)O)c1ccc(Cl)cc1 (stereo not shown) [rebamipide, 2-(4-chlorobenzoylamino)-3-[2(1H)-quinolin-4-yl]propionic acid]
tear volume (tear-retention capacity): significantly higher
